Measurements reported in patent publication US11174250B2, “Substituted carboxamides as inhibitors of WDR5 protein-protein binding” (PROPELLON THERAPEUTICS INC., priority 2016, dated 2021).
Like-named read-outs stand apart in the source and are kept apart here.

Assays:
WDR5 protein = WDR5 protein (Homo sapiens (Human), UniProt P61964); assay: Surface Plasmon Resonance (SPR) assay; type: binding; settings: SPR; for residence time: τ=1/koff, read-out: Residence Time (t, min)
MLL1-WRAD2 complex = MLL1-WRAD2 complex (Homo sapiens (Human), UniProt P61964); assay: MLL1-WRAD2 enzyme assay (in vitro methyl transferase assay); type: biochemical; settings: MLL1-WRAD2 assay; read-out: In vitro MLL1 activity (IC50)
Experimental: Reaction was initiated with 1 μM 3H-SAM and incubated for 1 hour at 30° C. Reaction mixture was transferred to P81 filter-paper and washed with PBS before detection.

MV4-11 cells = assay: Cell proliferation assay (ATPlite); type: cell-based; settings: Homo sapiens, MV4-11, 120 h; MV-411 cells, five days; read-out: In vitro whole cell potency in MV-411 cells, (IC50)
Experimental: MV4-11 cells were seeded into a 96-well plate at 1,000 cells/well in 150 μl medium (Alpha-MEM containing 10% FBS, 100 μg/ml Normocin, and 50 μg/ml Gentamycin, Invitrogen). A HP D300 digital dispenser was used to dose cells with DMSO or test compounds across a 10-point range of concentrations (high dose of 10 μM), and cultures were grown in a humidified 5% CO2 incubator at 37° C. After five days, plates were removed from incubator and equilibrated to room temperature. An equal volume of ATPlite assay reagent was added to each well, and samples were processed according to manufacturer's instructions (Perkin Elmer). Luminescent signal was measured using an Envision plate reader equipped with a US-Luminescence detector.

[1] = Table 1, read-out: WDR5 binding affinity (KD)
[2] = Table 2, read-out: WDR5 binding affinity SPR (KD)

Row | Structure (SMILES) | Kd (WDR5 protein; [1]) [nM] | Kd (WDR5 protein; [2]) [nM] | residence time (WDR5 protein) [min] | IC50 (MLL1-WRAD2 complex) [nM] | IC50 (MV4-11 cells) [nM]
1 | CN1CCN(c2ccc(-c3ccnc(N4CCOCC4)c3F)cc2NC(=O)c2c[nH]c(=O)cc2C(F)(F)F)CC1 [Example 39, N-(5-(3-fluoro-2-morpholinopyridin-4-yl)-2-(4-methylpiperazin-1-yl)phenyl)-6-oxo-4-(trifluoromethyl)-1,6-dihydropyridine-3-carboxamide] | 28 | 28 | 1.46 | 2510 | > 10000
2 | C[C@@H]1CN(c2ccc(-c3cc(C(=O)Nc4ccccc4)ccc3F)cc2NC(=O)c2c[nH]c(=O)cc2C(F)(F)F)C[C@H](C)N1C [Example 80, N-(2′-fluoro-5′-(phenylcarbamoyl)-4-((3S,5R)-3,4,5-trimethylpiperazin-1-yl)-[1,1′-biphenyl]-3-yl)-6-oxo-4-(trifluoromethyl)-1,6-dihydropyridine-3-carboxamide] | 4 | 14 | 2.18 | 3990 | 2180
3 | CN1CCN(c2ccc(-c3cc(CN4CCOC(C)(C)C4)ccc3F)cc2NC(=O)c2c[nH]c(=O)cc2C(F)(F)F)CC1 [Example 77, N-(5′-((2,2-dimethylmorpholino)methyl)-2′-fluoro-4-(4-methylpiperazin-1-yl)-[1,1′-biphenyl]-3-yl)-6-oxo-4-(trifluoromethyl)-1,6-dihydropyridine-3-carboxamide] | 4.5 | 4.5 | 5.41 | 907 | 1280

Further lines, results first:

Row | Kd (WDR5 protein; [1]) [nM] | Kd (WDR5 protein; [2]) [nM] | residence time (WDR5 protein) [min] | IC50 (MLL1-WRAD2 complex) [nM] | IC50 (MV4-11 cells) [nM] | Structure (SMILES)
4 | 5.9 | 5.9 | 5.13 | 2090 | 1220 | CN1CCN(c2ccc(-c3cc(CN4CC[C@@H](S(C)(=O)=O)C4)ccc3F)cc2NC(=O)c2c[nH]c(=O)cc2C(F)(F)F)CC1 [Example 75, (R)—N-(2′-fluoro-4-(4-methylpiperazin-1-yl)-5′-((3-(methylsulfonyl)pyrrolidin-1-yl)methyl)-[1,1′-biphenyl]-3-yl)-6-oxo-4-(trifluoromethyl)-1,6-dihydropyridine-3-carboxamide]
5 | 7.2 | 7.2 | 3.79 | 1100 | 1130 | CN1CCN(c2ccc(-c3cc(CN4CCN(CC5CC5)CC4)ccc3F)cc2NC(=O)c2c[nH]c(=O)cc2C(F)(F)F)CC1 [Example 66, N-(5′-((4-(cyclopropylmethyl)piperazin-1-yl)methyl)-2′-fluoro-4-(4-methylpiperazin-1-yl)-[1,1′-biphenyl]-3-yl)-6-oxo-4-(trifluoromethyl)-1,6-dihydropyridine-3-carboxamide]
6 | 5 | 6 | 4.38 | 1300 | 2910 | CN1CCN(c2ccc(-c3cc(CNC4CCOCC4)ccc3F)cc2NC(=O)c2c[nH]c(=O)cc2C(F)(F)F)CC1 [Example 37, N-(2′-fluoro-4-(4-methylpiperazin-1-yl)-5′-(((tetrahydro-2H-pyran-4-yl)amino)methyl)-[,1′-biphenyl]-3-yl)-6-oxo-4-(trifluoromethyl)-1,6-dihydropyridine-3-carboxamide]
7 | 5.5 | 5.5 | 3.81 | 1900 | 787 | CN1CCN(c2ccc(-c3cc(CN(C)[C@H]4CCOC4)ccc3F)cc2NC(=O)c2c[nH]c(=O)cc2C(F)(F)F)CC1 [Example 76, (S)—N-(2′-fluoro-5′-((methyl(tetrahydrofuran-3-yl)amino)methyl)-4-(4-methylpiperazin-1-yl)-[1,1′-biphenyl]-3-yl)-6-oxo-4-(trifluoromethyl)-1,6-dihydropyridine-3-carboxamide]
8 | 6 | 6 | 9.48 | 332 | 680 | CN1CCN(c2ccc(-c3cc(C(=O)NC4CCCCC4)ccc3F)cc2NC(=O)c2c[nH]c(=O)cc2C(F)(F)F)CC1 [Example 32, N-(5′-(cyclohexylcarbamoyl)-2′-fluoro-4-(4-methylpiperazin-1-yl)-[1,1′-biphenyl]-3-yl)-6-oxo-4-(trifluoromethyl)-1,6-dihydropyridine-3-carboxamide]
